According to PMC3391913, “Cellular Immune Reactions of the Sunn Pest, Eurygaster integriceps, to the Entomopathogenic Fungus, Beauveria bassiana and Its Secondary Metabolites” (Journal of Insect Science, 2011):

Tested on: T1, phenoloxidase (PO)
T1 construct: gene prophenoloxidase; native, unpurified hemocyte lysate supernatant of adults; bands of 46 and 59 kDa on native PAGE
Experiment: spectrophotometric phenoloxidase assay at […] nm, fit in SigmaPlot
Assay type: biochemical, Eurygaster integriceps
Conditions: control insects without fungal metabolite; hemocyte lysate; 3-10 mM substrate; phosphate buffer pH 6.5; 30 °C

- Km: 1630 µM
SMILES: N[C@@H](Cc1ccc(O)c(O)c1)C(=O)O [L-dihydroxyphenylalanine]
